Numbers after ± are expanded uncertainties.
Conditions: Liquid, Vibrating tube method

CC(C)CO [2-methyl-1-propanol]
Conditions	mass density [kg/m3]
303.15 K, 20042 kPa	809.402 ± 0.83
303.15 K, 25084 kPa	812.578 ± 0.84
303.15 K, 30167 kPa	816.191 ± 0.85
303.15 K, 32070 kPa	817.319 ± 0.86
303.15 K, 33147 kPa	817.694 ± 0.86
303.15 K, 35162 kPa	818.815 ± 0.86
303.15 K, 38019 kPa	820.574 ± 0.87
303.15 K, 39970 kPa	821.716 ± 0.87
303.15 K, 42004 kPa	823.024 ± 0.88
303.15 K, 45033 kPa	824.95 ± 0.88
303.15 K, 49864 kPa	827.592 ± 0.89
303.15 K, 52115 kPa	829.036 ± 0.9
303.15 K, 55239 kPa	830.776 ± 0.91
303.15 K, 58089 kPa	832.479 ± 0.91
303.15 K, 60079 kPa	833.282 ± 0.92
303.15 K, 62294 kPa	834.706 ± 0.92
303.15 K, 65137 kPa	835.715 ± 0.93
303.16 K, 270.1 kPa	793.901 ± 0.81
303.16 K, 464.4 kPa	794.084 ± 0.81
303.16 K, 779.6 kPa	794.287 ± 0.81
303.16 K, 2945 kPa	796.031 ± 0.81
303.16 K, 4911.2 kPa	797.923 ± 0.81
303.16 K, 7058.6 kPa	799.569 ± 0.81
303.16 K, 12047 kPa	803.47 ± 0.82
303.16 K, 22055 kPa	811.092 ± 0.84
303.16 K, 28094 kPa	815.049 ± 0.85
303.16 K, 32939 kPa	817.604 ± 0.86
303.16 K, 34037 kPa	818.139 ± 0.86
303.16 K, 48317 kPa	826.769 ± 0.89
303.16 K, 66124 kPa	836.43 ± 0.93
308.15 K, 96.7 kPa	791.579 ± 0.81
308.15 K, 250.6 kPa	791.714 ± 0.81
308.15 K, 562.2 kPa	791.995 ± 0.81
308.15 K, 991.9 kPa	792.349 ± 0.81
308.15 K, 5219.3 kPa	795.881 ± 0.81
308.15 K, 10282 kPa	799.926 ± 0.82
308.15 K, 15083 kPa	803.575 ± 0.83
308.15 K, 32866 kPa	815.75 ± 0.86
308.15 K, 35203 kPa	817.171 ± 0.86
308.15 K, 48031 kPa	824.96 ± 0.89
308.15 K, 55094 kPa	828.952 ± 0.91
308.15 K, 60161 kPa	831.729 ± 0.92
308.15 K, 62192 kPa	832.798 ± 0.92
308.15 K, 66004 kPa	834.804 ± 0.93
308.16 K, 770.2 kPa	792.158 ± 0.81
308.16 K, 2101.2 kPa	793.3 ± 0.81
308.16 K, 3195.1 kPa	794.224 ± 0.81
308.16 K, 7083 kPa	797.398 ± 0.81
308.16 K, 9108 kPa	799.011 ± 0.82
308.16 K, 12379 kPa	801.538 ± 0.82
308.16 K, 18161 kPa	805.827 ± 0.83
308.16 K, 20006 kPa	807.165 ± 0.83
308.16 K, 22192 kPa	808.686 ± 0.84
308.16 K, 25100 kPa	810.705 ± 0.84
308.16 K, 27887 kPa	812.568 ± 0.85
308.16 K, 30041 kPa	813.99 ± 0.85
308.16 K, 31933 kPa	815.242 ± 0.86
308.16 K, 33077 kPa	815.959 ± 0.86
308.16 K, 34026 kPa	816.482 ± 0.86
308.16 K, 35193 kPa	817.245 ± 0.86
308.16 K, 38088 kPa	818.995 ± 0.87
308.16 K, 40106 kPa	820.225 ± 0.87
308.16 K, 42282 kPa	821.541 ± 0.88
308.16 K, 45145 kPa	823.251 ± 0.89
308.16 K, 50089 kPa	826.126 ± 0.9
308.16 K, 52047 kPa	827.233 ± 0.9
308.16 K, 58085 kPa	830.585 ± 0.91
308.16 K, 65217 kPa	834.405 ± 0.93
313.15 K, 82.9 kPa	787.4 ± 0.81
313.15 K, 316.8 kPa	787.607 ± 0.81
313.15 K, 491.8 kPa	787.767 ± 0.81
313.15 K, 890.9 kPa	788.108 ± 0.81
313.15 K, 981.5 kPa	788.182 ± 0.81
313.15 K, 1939.6 kPa	789.038 ± 0.81
313.15 K, 2951 kPa	789.905 ± 0.81
313.15 K, 4889.1 kPa	791.537 ± 0.81
313.15 K, 6856.5 kPa	793.195 ± 0.81
313.15 K, 8886.9 kPa	794.841 ± 0.82
313.15 K, 10029 kPa	795.77 ± 0.82
313.15 K, 11886 kPa	797.214 ± 0.82
313.15 K, 14927 kPa	799.577 ± 0.83
313.15 K, 17845 kPa	801.775 ± 0.83
313.15 K, 20040 kPa	803.389 ± 0.84
313.15 K, 21942 kPa	804.76 ± 0.84
313.15 K, 24894 kPa	806.85 ± 0.84
313.15 K, 28132 kPa	809.095 ± 0.85
313.15 K, 29974 kPa	810.333 ± 0.85
313.15 K, 32058 kPa	811.716 ± 0.86
313.15 K, 35162 kPa	813.664 ± 0.87
313.15 K, 37952 kPa	815.444 ± 0.87
313.15 K, 40011 kPa	816.732 ± 0.88
313.15 K, 41939 kPa	817.878 ± 0.88
313.15 K, 45098 kPa	819.95 ± 0.89
313.15 K, 47966 kPa	821.512 ± 0.89
313.15 K, 49918 kPa	822.65 ± 0.9
313.15 K, 52024 kPa	823.857 ± 0.9
313.15 K, 54951 kPa	825.557 ± 0.91
313.15 K, 58062 kPa	827.336 ± 0.92
313.15 K, 60202 kPa	828.515 ± 0.92
313.15 K, 65050 kPa	831.15 ± 0.93
313.15 K, 66082 kPa	831.7 ± 0.94
313.16 K, 33053 kPa	812.371 ± 0.86
313.16 K, 33131 kPa	812.356 ± 0.86
313.16 K, 34040 kPa	812.94 ± 0.86
313.16 K, 62187 kPa	829.599 ± 0.93
318.15 K, 368.3 kPa	783.457 ± 0.81
318.15 K, 589.4 kPa	783.667 ± 0.81
318.15 K, 9887.6 kPa	791.657 ± 0.82
318.15 K, 33065 kPa	808.852 ± 0.86
318.15 K, 33128 kPa	808.894 ± 0.86
318.15 K, 35190 kPa	810.134 ± 0.87
318.15 K, 48088 kPa	818.249 ± 0.9
318.15 K, 52184 kPa	820.67 ± 0.91
318.15 K, 60194 kPa	825.273 ± 0.93
318.15 K, 62260 kPa	826.409 ± 0.93
318.15 K, 65194 kPa	828.017 ± 0.94
318.15 K, 66060 kPa	828.484 ± 0.94
318.16 K, 128.5 kPa	783.253 ± 0.81
318.16 K, 858.2 kPa	783.902 ± 0.81
318.16 K, 1069.5 kPa	784.105 ± 0.81
318.16 K, 1979.1 kPa	784.923 ± 0.81
318.16 K, 2997.4 kPa	785.79 ± 0.81
318.16 K, 4942.6 kPa	787.513 ± 0.81
318.16 K, 6987.2 kPa	789.27 ± 0.82
318.16 K, 8967.5 kPa	790.929 ± 0.82
318.16 K, 11870 kPa	793.265 ± 0.82
318.16 K, 14863 kPa	795.639 ± 0.83
318.16 K, 17735 kPa	797.848 ± 0.83
318.16 K, 19860 kPa	799.438 ± 0.84
318.16 K, 21987 kPa	801.004 ± 0.84
318.16 K, 25193 kPa	803.357 ± 0.85
318.16 K, 27823 kPa	805.216 ± 0.85
318.16 K, 30119 kPa	806.799 ± 0.86
318.16 K, 32145 kPa	808.205 ± 0.86
318.16 K, 34164 kPa	809.488 ± 0.87
318.16 K, 38074 kPa	812.009 ± 0.87
318.16 K, 40048 kPa	813.265 ± 0.88
318.16 K, 41997 kPa	814.496 ± 0.88
318.16 K, 45096 kPa	816.426 ± 0.89
318.16 K, 50173 kPa	819.491 ± 0.9
318.16 K, 55235 kPa	822.46 ± 0.91
318.16 K, 58075 kPa	824.084 ± 0.92
323.15 K, 62.1 kPa	778.89 ± 0.81
323.15 K, 338 kPa	779.159 ± 0.81
323.15 K, 557.5 kPa	779.374 ± 0.81
323.15 K, 917.3 kPa	779.697 ± 0.81
323.15 K, 2125.4 kPa	780.833 ± 0.81
323.15 K, 3154.8 kPa	781.778 ± 0.81
323.15 K, 5126.4 kPa	783.557 ± 0.81
323.15 K, 7366.8 kPa	785.517 ± 0.82
323.15 K, 9081.6 kPa	787.01 ± 0.82
323.15 K, 10156 kPa	787.907 ± 0.82
323.15 K, 12167 kPa	789.544 ± 0.82
323.15 K, 15030 kPa	791.876 ± 0.83
323.15 K, 18076 kPa	794.274 ± 0.83
323.15 K, 19932 kPa	795.694 ± 0.84
323.15 K, 22079 kPa	797.333 ± 0.84
323.15 K, 25085 kPa	799.541 ± 0.85
323.15 K, 28006 kPa	801.644 ± 0.85
323.15 K, 30029 kPa	803.084 ± 0.86
323.15 K, 31969 kPa	804.431 ± 0.86
